According to US11433099B2, “Immunotherapy with B*08 restricted peptides and combination of peptides against cancers and related methods” (Immatics Biotechnologies GmbH, priority 2018, dated 2022):

How the values were obtained:
[1] = tested on: CD8+ T cells of healthy HLA-B*08 donors; assay: In vitro T-cell priming assay with aAPCs loaded with peptide/MHC complexes and anti-CD28 antibody, pMHC multimer readout; type: cell-based, human; conditions: in vitro immunogenicity
Source text: In order to obtain information regarding the immunogenicity of the TUMAPs of the present invention, the inventors performed investigations using an in vitro T-cell priming assay based on repeated stimulations of CD8+ T cells with artificial antigen presenting cells (aAPCs) loaded with peptide/MHC complexes and anti-CD28 antibody.
In order to perform in vitro stimulations by artificial antigen presenting cells loaded with peptide-MHC complex (pMHC) and anti-CD28 antibody, the inventors first isolated CD8+ T cells from fresh HLA-B*08 leukapheresis products via positive selection using CD8 microbeads (Miltenyi Biotec, Bergisch-Gladbach, Germany) of healthy donors obtained from the University clinics Mannheim, Germany, after informed consent.
PBMCs and isolated CD8+ lymphocytes were incubated in T-cell medium (TCM) until use consisting of RPMI-Glutamax (Invitrogen, Karlsruhe, Germany) supplemented with 10% heat inactivated human AB serum (PAN-Biotech, Aidenbach, Germany), 100 U/ml Penicillin/100 μg/ml Streptomycin (Cambrex, Cologne, Germany), 1 mM sodium pyruvate (CC Pro, Oberdorla, Germany), 20 μg/ml Gentamycin (Cambrex). 2.5 ng/ml IL-7 (PromoCell, Heidelberg, Germany) and 10 U/ml IL-2 (Novartis Pharma, Nornberg, Germany) were also added to the TCM at this step.
Generation of pMHC/anti-CD28 coated beads, T-cell stimulations and readout was performed in a highly defined in vitro system using four different pMHC molecules per stimulation condition and 8 different pMHC molecules per readout condition.
The purified co-stimulatory mouse IgG2a anti human CD28 Ab 9.3 (Jung et al., 1987) was chemically biotinylated using Sulfo-N-hydroxysuccinimidobiotin as recommended by the manufacturer (Perbio, Bonn, Germany). Beads used were 5.6 μm diameter streptavidin coated polystyrene particles (Bangs Laboratories, Illinois, USA).
800.000 beads/200 μl were coated in 96-well plates in the presence of 4×12.5 ng different biotin-pMHC, washed and 600 ng biotin anti-CD28 were added subsequently in a volume of 200 μl. Stimulations were initiated in 96-well plates by co-incubating 1×10^6 CD8+ T cells with 2×10^5 washed coated beads in 200 μl TCM supplemented with 5 ng/ml IL-12 (PromoCell) for 3 days at 37° C. Half of the medium was then exchanged by fresh TCM supplemented with 80 U/ml IL-2 and incubating was continued for 4 days at 37° C. This stimulation cycle was performed for a total of three times. For the pMHC multimer readout using 8 different pMHC molecules per condition, a two-dimensional combinatorial coding approach was used as previously described (Andersen et al., 2012) with minor modifications encompassing coupling to 5 different fluorochromes. Finally, multimeric analyses were performed by staining the cells with Live/dead near IR dye (Invitrogen, Karlsruhe, Germany), CD8-FITC antibody clone SK1 (BD, Heidelberg, Germany) and fluorescent pMHC multimers. For analysis, a BD LSRII SORP cytometer equipped with appropriate lasers and filters was used. Peptide specific cells were calculated as percentage of total CD8+ cells. Evaluation of multimeric analysis was done using the FlowJo software (Tree Star, Oregon, USA). In vitro priming of specific multimer+CD8+ lymphocytes was detected by comparing to negative control stimulations.

HLA-B*08:01 = HLA-B*08:01 (Homo sapiens, UniProt P01889); assay: MHC binding assay (UV-ligand exchange, beta2m ELISA); conditions: MHC class I binding score; binding to HLA-B*08:01 ranged by peptide exchange yield (UV-ligand exchange, β2m ELISA)
How it was run: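 Peptide–HLA complexes generated by UV-ligand exchange of a UV-cleavable peptide for the test peptide; exchange yield read by β2m ELISA on streptavidin capture (samples diluted 100-fold, 1 h 37 °C), HRP anti-β2m, TMB, A450. Quantified against refolded HLA-A*02:01/MLA-001 monomer standards (15-500 ng/ml).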

[2] = HLA class I peptides, Table 10B
[3] = Table 10A, HLA-B*08 pMHC, healthy donors

Substance: 1 (ALKLKVAEL; listed as Homo sapiens) [compound 1]
- Wells positive [%] [1, 2]: ++ (20%-49% = ++)
- Peptide exchange (HLA-B*08:01): ++ (20% = ++)

Substance: 3 (SIQSRYISM; listed as Homo sapiens) [compound 3]
- Wells positive [%] [1, 2]: ++ (20%-49% = ++)
- Peptide exchange (HLA-B*08:01): +++ (50% = +++)

Substance: 5 (STMPKILAL; listed as Homo sapiens) [compound 5]
- Wells positive [%] [1, 2]: + (<20% = +)
- Peptide exchange (HLA-B*08:01): +++ (50% = +++)

Substance: 8 (FVRPKLVTI; listed as Homo sapiens) [compound 8]
- Wells positive [%] [1, 2]: + (<20% = +)
- Peptide exchange (HLA-B*08:01): +++ (50% = +++)

Substance: 9 (LLKGKPRAL; listed as Homo sapiens) [compound 9]
- Wells positive [%] [1, 2]: + (<20% = +)
- Peptide exchange (HLA-B*08:01): ++ (20% = ++)

Substance: 10 (MGKFKQCF; listed as Homo sapiens) [compound 10]
- Wells positive [%] [1, 2]: ++++ (>=70% = ++++)
- Peptide exchange (HLA-B*08:01): +++ (50% = +++)

Substance: 11 (MAPLKMLAL; listed as Homo sapiens) [compound 11]
- Wells positive [%] [1, 2]: +++ (50%-69%= +++)
- Peptide exchange (HLA-B*08:01): +++ (50% = +++)

Substance: 13 (EPFTRPVL; listed as Homo sapiens) [compound 13]
- Wells positive [%] [1, 2]: + (<20% = +)
- Peptide exchange (HLA-B*08:01): ++ (20% = ++)

Substance: 18 (LSLVRKAL; listed as Homo sapiens) [compound 18]
- Wells positive [%] [1, 2]: ++ (20%-49% = ++)
- Peptide exchange (HLA-B*08:01): +++ (50% = +++)

Substance: 19 (FTLLRRLSL; listed as Homo sapiens) [compound 19]
- Wells positive [%] [1, 2]: ++++ (>=70% = ++++)
- Peptide exchange (HLA-B*08:01): +++ (50% = +++)

Substance: 20 (ILKRFLAC; listed as Homo sapiens) [compound 20]
- Wells positive [%] [1, 2]: + (<20% = +)
- Peptide exchange (HLA-B*08:01): +++ (50% = +++)

Substance: 21 (RILKRFLAC; listed as Homo sapiens) [compound 21]
- Wells positive [%] [1, 2]: + (<20% = +)
- Peptide exchange (HLA-B*08:01): +++ (50% = +++)

Substance: 22 (EVRLKPIL; listed as Homo sapiens) [compound 22]
- Wells positive [%] [1, 2]: + (<20% = +)
- Peptide exchange (HLA-B*08:01): ++ (20% = ++)

Substance: 25 (HLHPKGREL; listed as Homo sapiens) [compound 25]
- Wells positive [%] [1, 2]: ++ (20%-49% = ++)
- Peptide exchange (HLA-B*08:01): ++ (20% = ++)

Substance: 29 (ELFLHPVL; listed as Homo sapiens) [compound 29]
- Wells positive [%] [1, 2]: ++ (20%-49% = ++)
- Peptide exchange (HLA-B*08:01): ++ (20% = ++)

Substance: 31 (SPRVKWTF; listed as Homo sapiens) [compound 31]
- Wells positive [%] [1, 2]: ++++ (>=70% = ++++)
- Peptide exchange (HLA-B*08:01): ++ (20% = ++)

Substance: 33 (WIGLRNLDL; listed as Homo sapiens) [compound 33]
- Wells positive [%] [1, 2]: + (<20% = +)
- Peptide exchange (HLA-B*08:01): +++ (50% = +++)

Substance: 34 (IYRKKYIL; listed as Homo sapiens) [compound 34]
- Wells positive [%] [1, 2]: + (<20% = +)
- Peptide exchange (HLA-B*08:01): ++ (20% = ++)

Substance: 35 (ELFQRPVL; listed as Homo sapiens) [compound 35]
- Wells positive [%] [1, 2]: + (<20% = +)
- Peptide exchange (HLA-B*08:01): ++ (20% = ++)

Substance: 36 (IVKIKVQEL; listed as Homo sapiens) [compound 36]
- Wells positive [%] [1, 2]: ++ (20%-49% = ++)
- Peptide exchange (HLA-B*08:01): ++ (20% = ++)

Substance: 37 (EAFSRASL; listed as Homo sapiens) [compound 37]
- Wells positive [%] [1, 2]: ++ (20%-49% = ++)
- Peptide exchange (HLA-B*08:01): ++ (20% = ++)

Substance: 38 (EVYQKIIL; listed as Homo sapiens) [compound 38]
- Wells positive [%] [1, 2]: ++++ (>=70% = ++++)
- Peptide exchange (HLA-B*08:01): +++ (50% = +++)

Substance: 40 (ESMLKTTL; listed as Homo sapiens) [compound 40]
- Wells positive [%] [1, 2]: + (<20% = +)
- Peptide exchange (HLA-B*08:01): ++ (20% = ++)

Substance: 41 (RGALRTLSL; listed as Homo sapiens) [compound 41]
- Wells positive [%] [1, 2]: + (<20% = +)
- Peptide exchange (HLA-B*08:01): ++ (20% = ++)

Substance: 42 (VLRRKTLL; listed as Homo sapiens) [compound 42]
- Wells positive [%] [1, 2]: + (<20% = +)
- Peptide exchange (HLA-B*08:01): ++ (20% = ++)

Substance: 45 (RLKVALSTL; listed as Homo sapiens) [compound 45]
- Wells positive [%] [1, 2]: + (<20% = +)
- Peptide exchange (HLA-B*08:01): +++ (50% = +++)

Substance: 47 (HSRVKLAQL; listed as Homo sapiens) [compound 47]
- Wells positive [%] [1, 2]: ++ (20%-49% = ++)
- Peptide exchange (HLA-B*08:01): ++ (20% = ++)

Substance: 48 (ELALRQTV; listed as Homo sapiens) [compound 48]
- Wells positive [%] [1, 2]: + (<20% = +)
- Peptide exchange (HLA-B*08:01): ++ (20% = ++)

Substance: 49 (FLRVFTDSL; listed as Homo sapiens) [compound 49]
- Wells positive [%] [1, 2]: + (<20% = +)
- Peptide exchange (HLA-B*08:01): +++ (50% = +++)

Substance: 57 (MPLKHYLL; listed as Homo sapiens) [compound 57]
- Wells positive [%] [1, 2]: +++ (50%-69%= +++)
- Peptide exchange (HLA-B*08:01): ++ (20% = ++)

Substance: 58 (LPKKMKLL; listed as Homo sapiens) [compound 58]
- Wells positive [%] [1, 2]: ++ (20%-49% = ++)
- Peptide exchange (HLA-B*08:01): ++ (20% = ++)

Substance: 60 (MLHIKKAEV; listed as Homo sapiens) [compound 60]
- Wells positive [%] [1, 2]: + (<20% = +)
- Peptide exchange (HLA-B*08:01): +++ (50% = +++)

Substance: 62 (FMLAKEASL; listed as Homo sapiens) [compound 62]
- Wells positive [%] [1, 2]: + (<20% = +)
- Peptide exchange (HLA-B*08:01): ++ (20% = ++)

Substance: 63 (YVKRKTNVL; listed as Homo sapiens) [compound 63]
- Wells positive [%] [1, 2]: + (<20% = +)
- Peptide exchange (HLA-B*08:01): ++ (20% = ++)

Substance: 66 (DLKKTRVL; listed as Homo sapiens) [compound 66]
- Wells positive [%] [1, 2]: + (<20% = +)
- Peptide exchange (HLA-B*08:01): ++ (20% = ++)

Substance: 68 (DLKIPRYPV; listed as Homo sapiens) [compound 68]
- Wells positive [%] [1, 2]: +++ (50%-69%= +++)
- Peptide exchange (HLA-B*08:01): +++ (50% = +++)

Substance: 71 (HIRIKHTF; listed as Homo sapiens) [compound 71]
- Wells positive [%] [1, 2]: ++ (20%-49% = ++)
- Peptide exchange (HLA-B*08:01): +++ (50% = +++)

Substance: 278 (RAQLKLVAL; listed as Homo sapiens) [compound 278]
- Wells positive [%] [1, 3]: + (<20% = +)

Substance: 283 (MAQFKEISL; listed as Homo sapiens) [compound 283]
- Wells positive [%] [1, 3]: ++++ (>=70% = ++++)

Substance: 284 (ELKKKEYEEL; listed as Homo sapiens) [compound 284]
- Wells positive [%] [1, 3]: + (<20% = +)

Substance: 285 (EAMLRNKEL; listed as Homo sapiens) [compound 285]
- Wells positive [%] [1, 3]: + (<20% = +)

Substance: 286 (ILLPRTVSL; listed as Homo sapiens) [compound 286]
- Wells positive [%] [1, 3]: + (<20% = +)
